This is an account of results in patent publication US12036228B2, “Treatment of seizure disorders” (Shackelford Pharma Inc., priority 2022, dated 2024).

In general, ED50 refers to the dose at which the effect has come halfway, by size or by number of responders.

For data set [1], the system named is seizures in human patient. In words: Example 3 human patient, GTC and complex partial seizures. The format is in vivo. To be noted: including ataxia; discontinued after 6 months. The text has this:
A patient first started having GTC and complex partial (CP) seizures. […] The patient was referred for evaluation for initiation of cannabinoid/THC treatment in March 2014.

In the next data set the test system is male CD-1 mice. Description: Neurological assessment (score 0-3) immediately prior to seizure test. The format is in vivo, mouse. More on the design: key to Neurological Score: 0: Normal; 1: Modest decrease in spontaneous activity; 2: Marked decrease in spontaneous activity; 3: Loss of righting reflex. To be noted: for Neurological Score: 30 min after dosing, individual animals. How it is done:
Immediately prior to each seizure test, a brief neurological assessment was performed.

For data set [2], the system named is male CD-1 mice, 6 Hz (22 mA) corneal stimulus psychomotor seizure. Description: Mouse 6 Hz seizure (22 mA) test. In kind it is in vivo. To be noted: for % Seizure, group / % Seizure / F. Clonus / Lat H. Movement / Straub T. / Stun / Total (seizure score) / Total (seizure score), group mean / ED50: 30 min before test; for % Seizure: individual animals (0/1); for F. Clonus / Lat H. Movement / Straub T. / Stun / Total (seizure score): individual animals; for ED50: Mus musculus, IP. The protocol: This study assessed the anti-epileptic effects of low doses of dronabinol in the mouse 6 Hz seizure (22 mA) test at 4 dose levels. Sixty male CD-1 mice were randomly allocated to 1 of 7 treatment groups outlined in Table 1 below. The mice were purchased from Charles River Laboratories (St. Constant, Quebec, Canada). On the day of the experiment, general health observations and body weight measurements were performed prior to dosing. Thirty (30) minutes after administration of assigned treatments in Table 1, animals underwent a neurological assessment followed immediately by 6 Hz testing. Descriptions of these procedures are provided below.
Dronabinol and sodium valproate were dissolved in their respective vehicles on the day of dosing. Treatments were intraperitoneally administered to the lower right quadrant of the abdomen according to standard operating procedures. Treatment group summaries are included in Table 1.
On the scheduled test day, subjects received a dose of their assigned treatment 30 minutes before the electrical stimulus. Following neurological assessments, animals then received an electrical stimulus (6 Hz, 0.2 millisecond pulse width, 3 second duration, 22 mA) via corneal electrodes moistened with saline (ECT unit 57800; Ugo Basile). In approximately 50% of control animals, these stimulus parameters should elicit a psychomotor seizure within 30 seconds of stimulus delivery, defined as the expression of at least one of the following behaviours: stun/immobility, forelimb clonus, straub tail, or lateral head movement. Protection was defined as complete absence of the following: stun/immobility, forelimb clonus, straub tail and/or lateral head movement, within 30 seconds of stimulus delivery. A seizure score was assigned to each animal based on the number of these behaviours expressed by the animal after stimulus application. Once the animal either entered into a seizure, or 30 seconds elapsed, the endpoint was reached, and the animal was immediately euthanized.
All statistical analyses were performed using GraphPad Prism v.7.03. Analysis of variance (ANOVA) was completed for total seizure score data with the independent grouping variable of treatment (i.e., test article dose and control). In the event of a significant main effect, post-hoc Fisher's least significant difference analysis was conducted to compare vehicle with drug treatment.

Data set [3] deals with GTC seizures in human patient. In words: Example 2 human patient, Dravet syndrome. In kind it is in vivo. The protocol:
A patient first started having seizures and was subsequently diagnosed with Dravet syndrome. Initially, they were having clusters of 2 GTC seizures a day for 2 days occurring about every 2 weeks. Keppra was ineffective as were other combinations of anti-epileptic drugs. Several different combinations were tried and by the time they were first seen for evaluation for cannabinoid treatment on Aug. 7, 2014, they were taking Depakote 125 mg BID, Clonazepam 0.5 mg TID, and Versed/Diastat as needed for rescue but was still having clusters of GTC seizures every 2 weeks. The patient had started a CBD product on Jul. 3, 2014 (product analysis: 11.2 mg CBD/gm with 0.38 mg THC/gm at a dose of 0.7 mL TID (unknown concentration per mL), but seizures still were occurring irregularly—primarily GTC occurring in clusters of 1-2 per day every two weeks, rare atonic, and occasional eye-flutters.

Data set [4] relates to GTC seizures in human patient. Description: Example 7 human patient, intractable GTC seizures. In kind it is in vivo. The text has this:
A patient was first diagnosed with intractable GTC seizures without status epilepticus in 2001.
The patient first presented for cannabinoid treatment on May 24, 2013. They were then a PhD student in economics. The patient's medical history is significant for having a car accident with a concussion and “scarring”. They developed GTC seizures occurring 3 times per month. […] In 2008, they started using recreational cannabis occasionally, but not regularly.

“And” between values parts separate entries of the source, which are not always exact repeats. Identical values can stand only once. Like-named read-outs stand apart in the source and are kept apart here.

Regarding `CCCC(CCC)C(=O)O` [Depakote], the side effects entry in data set [1] was “debilitating side effects”.
For `CCCCCc1cc(O)c2c(c1)OC(C)(C)[C@@H]1CCC(C)=C[C@@H]21` [Dronabinol], the “Neurological Score” value is given as 0 with male CD-1 mice (0.002 mg/kg IP, N = 8); 0 with male CD-1 mice (0.02 mg/kg IP, N = 8); 0 in the data set on male CD-1 mice (0.2 mg/kg IP, N = 8); 0 in the data set with male CD-1 mice (2 mg/kg IP, N = 11); 0 in the data set with male CD-1 mice (4 mg/kg IP, N = 9). In addition, the “Neurological Score, group mean” value with male CD-1 mice (0.002 mg/kg IP, N = 8) stood at 0.0; with male CD-1 mice (0.02 mg/kg IP, N = 8), 0.0; with male CD-1 mice (0.2 mg/kg IP, N = 8), 0.0; in the data set with male CD-1 mice (2 mg/kg IP, N = 11) it was 0.0; with male CD-1 mice (4 mg/kg IP, N = 9) it was 0.0. Further, the “effect on behaviour as measured by neurological scoring” value in the data set with male CD-1 mice (0.002-4 mg/kg IP) is on record as “no measurable effect on behaviour”. Also, the “% Seizure, group” value in data set [2] (0.002 mg/kg IP, N = 8) came out at 62.5%; in data set [2] (0.02 mg/kg IP, N = 8) it was 50.0%; in data set [2] (0.2 mg/kg IP, N = 8) it was 50.0%; in data set [2] (2 mg/kg IP, N = 11), 54.5%; in data set [2] (4 mg/kg IP, N = 9) it was 33.3%. In addition, the “% Seizure” value is 1 (5×) and 0 (3×) in data set [2] (0.002 mg/kg IP, N = 8); 0 (4×) and 1 (4×) in data set [2] (0.02 mg/kg IP, N = 8); 0 (4×) and 1 (4×) in data set [2] (0.2 mg/kg IP, N = 8); 1 (6×) and 0 (5×) in data set [2] (2 mg/kg IP, N = 11); 0 (6×) and 1 (3×) in data set [2] (4 mg/kg IP, N = 9). Also, the “F. Clonus” value in data set [2] (0.002 mg/kg IP, N = 8) was 1 (4×) and 0 (4×); in data set [2] (0.02 mg/kg IP, N = 8) it was 0 (7×) and 1; in data set [2] (0.2 mg/kg IP, N = 8) it was 0 (6×) and 1 (2×); in data set [2] (2 mg/kg IP, N = 11), 1 (5×) and 0 (6×); in data set [2] (4 mg/kg IP, N = 9), 0. The “Lat H. Movement” value in data set [2] (0.002 mg/kg IP, N = 8) was 1 (3×) and 0 (5×); in data set [2] (0.02 mg/kg IP, N = 8), 0 (5×) and 1 (3×); in data set [2] (0.2 mg/kg IP, N = 8), 0 (7×) and 1; in data set [2] (2 mg/kg IP, N = 11), 0 (8×) and 1 (3×); in data set [2] (4 mg/kg IP, N = 9), 0. The “Straub T.” value in data set [2] (0.002 mg/kg IP, N = 8) was 0 (7×) and 1; in data set [2] (0.02 mg/kg IP, N = 8) it was 0 (7×) and 1; in data set [2] (0.2 mg/kg IP, N = 8), 0 (5×) and 1 (3×); in data set [2] (2 mg/kg IP, N = 11), 0 (10×) and 1; in data set [2] (4 mg/kg IP, N = 9) it was 0 (8×) and 1. Further, the Stun in data set [2] (0.002 mg/kg IP, N = 8) is 1 (4×) and 0 (4×); in data set [2] (0.02 mg/kg IP, N = 8), 0 (5×) and 1 (3×); in data set [2] (0.2 mg/kg IP, N = 8), 0 (4×) and 1 (4×); in data set [2] (2 mg/kg IP, N = 11), 0 (8×) and 1 (3×); in data set [2] (4 mg/kg IP, N = 9) it was 0 (6×) and 1 (3×). Further, the “Total (seizure score)” value was 3 (2×) and 2 (3×) and 0 (3×) in data set [2] (0.002 mg/kg IP, N = 8); 0 (4×) and 2 (2×) and 1 and 3 in data set [2] (0.02 mg/kg IP, N = 8); 0 (4×) and 3 (2×) and 2 (2×) in data set [2] (0.2 mg/kg IP, N = 8); 1 (2×) and 0 (5×) and 2 (3×) and 4 in data set [2] (2 mg/kg IP, N = 11); 0 (6×) and 1 (2×) and 2 in data set [2] (4 mg/kg IP, N = 9). In addition, the “Total (seizure score), group mean” value in data set [2] (0.002 mg/kg IP, N = 8) is on record as 1.5; in data set [2] (0.02 mg/kg IP, N = 8) it was 1.0; in data set [2] (0.2 mg/kg IP, N = 8) it was 1.3; in data set [2] (2 mg/kg IP, N = 11), 1.0; in data set [2] (4 mg/kg IP, N = 9), 0.4. In addition, the “seizure incidence in the 6 HZ seizure test” value in data set [2] (4 mg/kg IP) is “Decreased seizure incidence”. In addition, the “seizure scores (mean±SEM) vs vehicle, post-hoc analysis” value in data set [2] (0.02, 2, and 4 mg/kg doses IP, p<0.05) is given as “reduction in seizure scores”. Also, the ED50 amounted to 4.01 mg/kg in data set [2] (0.002 to 4 mg/kg doses, 95% confidence limits 1.36-11.82 mg/kg, read-out: ED50, decrease in percentage incidence of seizures) and 0.1 mg/kg in data set [2] (95% CI (0.01-1.05), read-out: ED50, decrease in the seizure score).
On to `CC[C@@H](C(N)=O)N1CCCC1=O` [Keppra, levetiracetam], for which the effect on seizures entry in data set [3] (Dravet patient, initial treatment) is “ineffective”.
`CCCC(CCC)C(=O)[O-].[Na+]` [Sodium Valproate, Sodium valproate]: the “motor impairment (neurological assessment)” value with male CD-1 mice (600 mg/kg IP) is “noticeable motor impairment on all animals”. In addition, in the data set with male CD-1 mice (600 mg/kg IP, N = 4), the “Neurological Score” value turned out to be 2 and the “Neurological Score, group mean” value is given as 2.0. Further, in data set [2] (600 mg/kg IP, N = 4), the “% Seizure, group” value was 0.0%; the “% Seizure” value stood at 0; the “F. Clonus” value is 0; the “Lat H. Movement” value turned out to be 0. In addition, in data set [2] (600 mg/kg IP, N = 4), the “Straub T.” value was 0; the Stun is 0; the “Total (seizure score)” value was 0; the “Total (seizure score), group mean” value is reported as 0.0. Moreover, the “seizure scores (mean±SEM) vs vehicle, post-hoc analysis” value in data set [2] (p<0.01) was “reduction in seizure scores”.
`NC(=O)N1c2ccccc2C=Cc2ccccc21` [Tegretol]: the side effects result in data set [4] (Tegretol (dose unknown)) was “concerning side effects”.
For `NC(=O)N1c2ccccc2CC(=O)c2ccccc21` [Trileptal], the side effects result in data set [4] (Trileptal) is reported as “concerning side effects”.
Consider `CC(C)(C)C(O)/C=C/c1ccc2c(c1)OCO2` (stereo not drawn) [stiripentol], for which, in data set [3] (stiripentol added to Depakote and Onfi (and THC 5 mg HS)), the myoclonic seizures result was “resolution of myoclonic seizures”.
